The values that follow come from patent EP0522203A1, “Protein from lactic acid bacteria” (PROBICOM RESEARCH B.V., priority 1991, dated 1993).

*1 amine or outer side, *2 acyl side, *3 side chain or, on linkers, in order; H or OH if unused. Where a SMILES comes first, the peptide text is derived from it. The star is where a group is joined. pNA = O=[N+]([O-])c1ccc(N*)cc1; Suc = O=C(CCC(=O)[*:2])[*:1]; Cbz = O=C(OCc1ccccc1)*; Bz = O=C(c1ccccc1)*

The first test has as its system endopeptidase from L. lactis subsp. cremoris Wg2. Nature of the test: Substrate specificity: hydrolysis of peptides by the purified endopeptidase, analysed by thin layer chromatography.
Settings: not given
Further details: key to Activity: +: hydrolysis; -: no hydrolysis detectable. The format is biochemical.
In the case of `CC(C)C[C@H](NC(=O)[C@@H](N)CC(C)C)C(=O)O` [Leu-Leu], the Activity entry was “-”.
For the compound `C[C@H](NC(=O)[C@@H]1CCCN1C(=O)CN)C(=O)N1CCC[C@H]1C(=O)O` [Gly-Pro-Ala-Pro] (H-GPAP-OH), the Activity entry is “-”.
Regarding `C[C@H](NC(=O)[C@H](Cc1ccccc1)NC(=O)OCc1ccccc1)C(=O)O` [Z-Phe-Ala], the Activity result is given as “-”.
`O=C(NCC(=O)N1CCC[C@H]1C(=O)O)c1ccccc1` [Bz-Gly-Pro] (Bz-Gly-Pro-OH): the Activity entry is “-”.
Consider `C[C@H](N)C(=O)N[C@@H](C)C(=O)N[C@@H](C)C(=O)N[C@@H](C)C(=O)N[C@@H](C)C(=O)N[C@@H](C)C(=O)O` [Ala6], for which the Activity entry is “-”.
The same measure, in the same setting: the same measure for `CC(C)[C@H](NC(=O)CN)C(=O)N[C@@H](Cc1ccccc1)C(=O)O` [Gly-Val-Phe] (H-Gly-Val-Phe-OH): “-”.
As for `C[C@H](N)C(=O)N[C@@H](C)C(=O)N[C@@H](C)C(=O)N[C@@H](C)C(=O)N[C@@H](C)C(=O)O` [Ala5], the Activity result is listed as “-”.
Turning to `CC(C)C[C@H](NC(=O)OCc1ccccc1)C(=O)NCC(=O)NCC(=O)Nc1ccc([N+](=O)[O-])cc1` [Z-Leu-Gly-Gly-pNA] (Cbz-Leu-Gly-Gly-pNA), the Activity entry was “-”.
As to `NCC(=O)N1CCC[C@H]1C(=O)Nc1ccc([N+](=O)[O-])cc1` [Gly-Pro-pNA] (H-Gly-Pro-pNA), the Activity result was “-”.
Take oxydized insulin β-chain: the Activity entry is “+” and the “hydrolysis by the purified endopeptidase” value is given as “hydrolyzed”.
Consider `CC(C)C[C@H](NC(=O)[C@H](CC(C)C)NC(=O)[C@@H](N)CC(C)C)C(=O)O` [Leu-Leu-Leu] (H-Leu-Leu-Leu-OH), for which the Activity result is “-”.
Consider `C[C@H](NC(=O)[C@@H]1CCCN1C(=O)OCc1ccccc1)C(=O)O` [Z-Pro-Ala] (Cbz-Pro-Ala-OH), for which the Activity result is on record as “-”.
In the case of β-Casomorphin, the Activity result is listed as “-”.
In the case of `N[C@@H](Cc1ccc(O)cc1)C(=O)NCC(=O)NCC(=O)O` [Tyr-Gly-Gly, Tyrosyl-glycyl-glycine] (H-Tyr-Gly-Gly-OH), the Activity result is recorded as “-”.
On to `C[C@H](N)C(=O)N1CCC[C@H]1C(=O)Nc1ccc([N+](=O)[O-])cc1` [Ala-Pro-pNA] (H-Ala-Pro-pNA), for which the Activity entry is listed as “-”.
Take Glucagon: the Activity entry is given as “+”.
Same read-out and setting: the value for `CSCC[C@H](N)C(=O)NCC(=O)NCC(=O)O` [Met-Gly-Gly] (H-Met-Gly-Gly-OH) was “-”.
For `CSCC[C@H](NC(=O)[C@@H](N)Cc1ccccc1)C(=O)O` [Phe-Met] (H-Phe-Met-OH), the Activity entry was “-”.
Consider `CSCC[C@H](NC(=O)[C@H](Cc1ccccc1)NC(=O)CNC(=O)CNC(=O)[C@@H](N)Cc1ccc(O)cc1)C(=O)O` [Metenkaphalin, Tyrosyl-glycyl-glycyl-phenylalanyl-methionine], for which the Activity result was “+”.
As for `CC(C)[C@H](NC(=O)[C@@H](N)Cc1ccccc1)C(=O)O` [Phe-Val] (H-Phe-Val-OH), the Activity entry was “-”.
As for `CC(C)C[C@H](NC(=O)[C@@H]1CCCN1C(=O)[C@H](C)NC(=O)[C@H](C)NC(=O)CCC(=O)O)C(=O)Nc1ccc([N+](=O)[O-])cc1` [Nsucc-Ala-Ala-Pro-Leu-pNA] (Suc-AAPL-pNA), the Activity result is on record as “-”.
On to Neurotensin, for which the Activity result was “+”.
Consider `NCC(=O)NCC(=O)O` [Gly-Gly] (H-Gly-Gly-OH), for which the Activity entry is recorded as “-”.
The same measure, in the same setting: the same measure for `NCCCC[C@H](NC(=O)CNC(=O)c1ccccc1)C(=O)O` [Bz-Gly-Lys] (Bz-Gly-Lys-OH): “-”.
As for `C[C@H](NC(=O)CCC(=O)O)C(=O)N[C@@H](C)C(=O)N[C@@H](C)C(=O)Nc1ccc([N+](=O)[O-])cc1` [Nsucc-Ala-Ala-Ala-pNA], the Activity result is “-”.

Staying with this test, now noted: chromogenic substrates: TLC, hydrolysis also measured at A410.
Turning to `NCCCC[C@H](N)C(=O)Nc1ccc([N+](=O)[O-])cc1` [Lys-pNA], the Activity result is recorded as “-”.
Consider `O=C(O)CCC(=O)N[C@@H](Cc1ccccc1)C(=O)Nc1ccc([N+](=O)[O-])cc1` [Nsucc-Phe-pNA], for which the Activity entry was “-”.

Staying with this test, now noted: hydrolysis of the substrate by purified endopeptidase, analysed by TLC.
Take `CSCC[C@H](NC(=O)[C@H](CC(C)C)NC(=O)CNC(=O)[C@H](Cc1ccccc1)NC(=O)[C@H](Cc1ccccc1)NC(=O)[C@H](CCC(N)=O)NC(=O)[C@H](CCC(N)=O)NC(=O)[C@@H]1CCCN1C(=O)[C@H](CCCCN)NC(=O)[C@@H]1CCCN1C(=O)[C@@H](N)CCCNC(=N)N)C(N)=O` [Substance P]: the Activity result was “+”.
As for `NCC(=O)N1CCC[C@H]1C(=O)NCC(=O)NCC(=O)O` [Gly-Pro-Gly-Gly] (H-GPGG-OH), the Activity entry is “-”.
Regarding `CC(C)C[C@H](N)C(=O)NCC(=O)NCC(=O)O` [Leu-Gly-Gly] (H-Leu-Gly-Gly-OH), the Activity entry is reported as “-”.
With “β-Casein(203-209) (GPFPIIV; UniProt P02666 218-224, looked up, fragment)”, the Activity result was “+”.
For the compound “β-Casein(184-202) (DMPIQAFLLYQEPVLGPVR; UniProt P02666 199-217, looked up, fragment)”, the Activity entry is “+”.
On to “β-Casein( 33- 48) (FQSEEQQQTEDELQDK; UniProt P02666 48-63, looked up, fragment)”, for which the Activity result is “-”.
As to “Bradykinin (RPPGFSPFR; Bradykinin; UniProt P01042 381-389, looked up)”, the Activity entry is “+”.

In a further test the test system is endopeptidase. Description: Effect of potential inhibitors (chemical agents) on the endopeptidase activity (metenkaphalin hydrolysis, TLC). Type of test: biochemical, L. lactis subsp. cremoris Wg2. Details: key to Inhibition: +: Inhibition; -: No inhibition detectable.
Settings: not given
As for `O=S(=O)(O)c1ccc2c(N=Nc3ccccc3[As](=O)(O)O)c(O)c(S(=O)(=O)O)cc2c1` [Thorin], the Inhibition entry was “-”.
Take Hydroxylamine: the Inhibition entry is given as “-”.
In the case of `COC(CNC(=O)c1ccccc1OCC(=O)O)[CH2][Hg][OH]` (stereo not drawn) [Mersalyl, O-(3-hydroxymercuri-2-methoxypropyl)-carbamylphenoxyacetate], the Inhibition entry is on record as “-” and the “endopeptidase activity inhibited” value is reported as “did not have an effect on the activity”.
Consider `CCN1C(=O)C=CC1=O` [N-Ethylmaleimide], for which the Inhibition entry is listed as “-”.
For the compound `O=S(=O)(O)c1cc[c]([Hg][Cl])cc1` [pCMBS, p-chloromercuribenzenesulfonate], the Inhibition entry is given as “-” and the “endopeptidase activity inhibited” value is on record as “did not have an effect on the activity”.
Take `O=C(O)c1cc[c]([Hg][Cl])cc1` [pCMB, p-chloromercuribenzoate]: the Inhibition result is on record as “-” and the “endopeptidase activity inhibited” value is “did not have an effect on the activity”.
Consider `O=S(=O)(F)Cc1ccccc1` [PMSF, phenylmethylsulfonylfluoride], for which the Inhibition result was “+” and the “endopeptidase activity inhibited” value is “inhibited”.
On to `CC1=CC(=O)c2c(O)cccc2C1=O` [Plumbagin], for which the Inhibition entry is recorded as “-” and the “restoration of the enzyme activity inhibited by β-mercaptoethanol” value was “could not restore the enzyme activity”.

The same test, now with this note: 1 mM chemical agent, purified enzyme 4 µg protein preincubated 10 min at 20°C; metenkaphalin 15 min at 30°C; TLC.
Consider `CCOC(=O)OC(=O)OCC` [DEPC], for which the Inhibition result is listed as “-”.
`OCCS` [β-Mercaptoethanol]: the Inhibition result is given as “+”.
Take `c1cnc2c(c1)ccc1cccnc12` [1,10-phenanthroline]: the Inhibition entry was “+”.
Turning to `N[C@@H](CSSC[C@H](N)C(=O)O)C(=O)O` [Cystine], the Inhibition result is “-”.
With `O[C@H](CS)[C@H](O)CS` (racemic) [DTT, dithiothreitol], the Inhibition result was “-”.

The same test, now with this note: chemical agent 1.0 mM.
With `c1cnc2c(c1)ccc1cccnc12` [1,10-phenanthroline], the “endopeptidase activity inhibited” value is “inhibited”.
With `O[C@H](CS)[C@H](O)CS` (racemic) [DTT, dithiothreitol], the “endopeptidase activity inhibited” value was “not”.

Still in this test, the particulars now being: oxidizing reagents up to 5 mM.
With oxidized gluta thione, the “restoration of the enzyme activity inhibited by β-mercaptoethanol” value was “could not restore the enzyme activity”.

Staying with this test, now noted: β-mercaptoethanol.
`OCCS` [β-Mercaptoethanol]: the “reversibility of the inhibition of the enzyme” value is recorded as “irreversible”.

Still in this test, the particulars now being: β-mercaptoethanol 1%.
Take `OCCS` [β-Mercaptoethanol]: the “endopeptidase activity inhibited” value was “inhibited”.

Another test relates to LEP I.
Test: not given
The settings on record: cited from earlier work.
oxydized insulin β-chain: the “hydrolysis by LEP I” value was “cannot hydrolyse”.
On to Glucagon, for which the “hydrolysis by LEP I” value is “cannot hydrolyse”.
